{
  "source": "patent US20050250137A1",
  "about": "“Molecular targets of cancer and aging” (priority 2002, published 2005)",
  "test_system": "LFS cells",
  "assay": "poly (I:C) stimulation of LFS cells, STAT1α and IFNβ gene expression",
  "type": "cell-based, human",
  "details": "poly (I:C) treatment",
  "data": [
    {"substance": "poly (I:C)", "values": [
      {"measurement": "STAT1α and IFNβ gene expression", "setting": "MDAH041-PC", "result": "induced"},
      {"measurement": "STAT1α and IFNβ gene expression", "setting": "MDAH087-1", "result": "no induction"},
      {"measurement": "STAT1α and IFNβ gene expression", "setting": "MDAH087-10", "result": "no induction"},
      {"measurement": "STAT1α and IFNβ gene expression", "setting": "MDAH087-N", "result": "induced"},
      {"measurement": "STAT1α and IFNβ gene expression", "setting": "MDAH087-PC", "result": "induced"},
      {"measurement": "STAT1α and IFNβ gene expression", "setting": "immortal MDAH041", "result": "induced"}
    ]}
  ]
}
